This experiment in a line: Inhibition of LAT in human LNCAP cells assessed as inhibition of [3H]-L-leucine transport by liquid scintillation counting analysis. It is filed as cell-based.
For orientation: IC50 means the concentration that gives 50% inhibition. In the case of `NC1(C(=O)O)CC2CCC1C2` (stereo not given), the IC50 was found to be 4060 µM.

Take `CC(=O)O[C@H]1[C@H](OC(C)(C)[C@H]2CC=C(C)CC2)O[C@H](C)[C@H](O)[C@@H]1OC(=O)C=C(C)C`: the IC50 is 8.12 µM.

Consider `C/C=C(/C)C(=O)O[C@H]1[C@@H](O)[C@@H](C)O[C@@H](OC(C)(C)[C@H]2CC=C(C)CC2)[C@@H]1OC(C)=O`, for which the IC50 was determined as 29.2 µM.

As for `CC[C@H](C)C(=O)O[C@H]1[C@@H](O)[C@@H](C)O[C@@H](OC(C)(C)[C@H]2CC=C(C)CC2)[C@@H]1OC(C)=O`, the IC50 is 11.5 µM.

As for `CC[C@H](C)C(=O)O[C@@H]1[C@H](O)[C@@H](OC(C)=O)[C@H](OC(C)(C)[C@H]2CC=C(C)CC2)O[C@@H]1C`, the IC50 is 39.7 µM.

For the origin of these results see ChEMBL document CHEMBL3585294, “LAT Transport Inhibitors from Pittosporum venulosum Identified by NMR Fingerprint Analysis” (J Nat Prod, 2015).
